Patent US8748476B2, “Darifenacin for use in the treatment of urgency induced by overactive bladder” (Warner Chilcott Company, LLC, priority 2002, dated 2014)
Marks after values point to notes of the source that are not given here.

Experiments:
[1] = system: subjects with symptoms of urgency (mixture of OAB Wet and OAB Dry sufferers); assay: Clinical Study 2: warning time between onset of urgency and need to micturate, measured with a modified stop-watch; type: in vivo, human
Procedure: Two novel methods for the assessment of urgency were used. The first was for use in a large scale clinical trial, and the second was for use in clinical laboratory studies. In both of these studies, darifenacin was administered as its hydrobromide salt. It was presented in slow release matrix tablets of the type described in U.S. Pat. No. 6,106,864, particularly Example 3. Tablets were administered once daily (o.d.). This study used a novel method for measuring the time between the first onset of the urgency and the need to micturate, which is known as the ‘warning time’. A modified stop-watch was used which required the subject to press a button at the onset of urge and a second button when they felt they needed to micturate. Darifenacin (as the hydrobromide salt; 30 mg o.d.) and placebo were evaluated in subjects with symptoms of urgency. The subjects were a mixture of OAB Wet and OAB Dry sufferers. The ‘warning time’ was assessed at baseline and following 2 weeks of treatment using the modified stop watch. 36 patients (29 female, 7 male) received darifenacin; and 36 patients (22 female, 14 male) received placebo.

[2] = system: OAB Wet patients (subjects with a diagnosis of overactive bladder); assay: Clinical Study 1: multicentre trial, diary record of urgency episodes and severity of urgency (VAS); type: in vivo, human; details: for No of episodes of urgency/day, Median change from baseline / No of episodes of urgency/day, Median % Change from baseline: 12 weeks of treatment; for No of episodes of urgency/day, Median change from baseline: placebo −1.2; for No of episodes of urgency/day, Median % Change from baseline: placebo −15.7; for No of episodes of urgency/day, Median difference from placebo / Severity of urgency/day, Median difference from placebo: corrected for placebo; for No of episodes of urgency/day, Median difference from placebo / Severity of urgency/day, Median change from baseline / Severity of urgency/day, Median difference from placebo: 12 weeks; for Severity of urgency/day, Median change from baseline: visual analogue scale (mild to severe), placebo −3.9; for Severity of urgency/day, Median difference from placebo: visual analogue scale
Procedure: Two novel methods for the assessment of urgency were used. The first was for use in a large scale clinical trial, and the second was for use in clinical laboratory studies. In both of these studies, darifenacin was administered as its hydrobromide salt. It was presented in slow release matrix tablets of the type described in U.S. Pat. No. 6,106,864, particularly Example 3. Tablets were administered once daily (o.d.). In this study, OAB Wet patients recorded each episode of urgency per day and the overall severity of urgency for each day in a diary. The severity of urgency was recorded by the use of a visual analogue scale (VAS) where the anchor points were mild and severe. Darifenacin (as hydrobromide salt; 7.5 mg, 15 mg and 30 mg of the active moiety, o.d.) and placebo were evaluated in subjects with a diagnosis of overactive bladder in a multicentre trial and symptoms of urgency were assessed using the VAS at baseline and at the end of the study (12 weeks of treatment). 108 patients (14 male, 94 female) received 7.5 mg; 107 patients (15 male, 92 female) received 15 mg; 114 patients (16 male, 98 female) received 30 mg; and 108 patients (18 male, 90 female) received placebo.

[3] = 30 mg o.d., 2 weeks of treatment
[4] = 15 mg o.d., baseline 8.6, P < 0.05
[5] = 30 mg o.d., baseline 8.4, P < 0.001
[6] = 7.5-30 mg, effect significantly greater than that produced by placebo
[7] = 15 mg o.d., baseline 56.2, P < 0.05
[8] = 30 mg o.d., baseline 53.5, P < 0.05

For NC(=O)C(c1ccccc1)(c1ccccc1)[C@@H]1CCN(CCc2ccc3c(c2)CCO3)C1 [Darifenacin, (S)-2-(1-[2-(2,3-dihydrobenzofuran-5-yl)ethyl]-3-pyrrolidinyl)-2,2-diphenyl-acetamide], the “Effect on warning time compared with placebo” value [1, 3] was “significant increase”, the “Warning time, Median difference from placebo” value [1, 3] was 4.3 min and the “Warning Time, Week 2 (Median)” value ([1]; 30 mg o.d., 2 weeks of treatment, baseline median 4.7, placebo week 2 4.1, P < 0.01) was 8.4** Min. For the same molecule, the “Response of OAB Wet and OAB Dry subjects” value ([1]; both OAB Wet and OAB Dry subjects) was “responded to treatment”, the “No of episodes of urgency/day, Median change from baseline” value ([2]; 7.5 mg o.d., baseline 8.5) was −1.8 episodes of urgency/day and the “No of episodes of urgency/day, Median % Change from baseline” value ([2]; 7.5 mg o.d.) was −29.2%. The “No of episodes of urgency/day, Median change from baseline” value [2, 4] was −2.3* episodes of urgency/day, the “No of episodes of urgency/day, Median % Change from baseline” value ([2]; 15 mg o.d.) was −26.9% and the “No of episodes of urgency/day, Median change from baseline” value [2, 5] was −3*** episodes of urgency/day. For the same molecule, the “No of episodes of urgency/day, Median % Change from baseline” value ([2]; 30 mg o.d.) was −33.1%, the “Effect on number of episodes of urgency” value [2, 6] was “dose-related reduction” and the “Effect on overall severity of urgency” value [2, 6] was “dose-related reduction”. For the same molecule, the “Effect on the symptom of urgency in subjects with overactive bladder (conclusion)” value ([2]; conclusion drawn from both clinical studies) was “clinically significant attenuation”, the “No of episodes of urgency/day, Median difference from placebo” value ([2]; 7.5 mg o.d., baseline 8.5) was −0.5 episodes of urgency/day and the “No of episodes of urgency/day, Median difference from placebo” value [2, 4] was −1.1* episodes of urgency/day. For the same molecule, the “No of episodes of urgency/day, Median difference from placebo” value [2, 5] was −1.4*** episodes of urgency/day, the “Severity of urgency/day, Median change from baseline” value ([2]; 7.5 mg o.d., baseline 53.2) was −7 and the “Severity of urgency/day, Median change from baseline” value [2, 7] was −7*. The “Severity of urgency/day, Median change from baseline” value [2, 8] was −9.4*, the “Severity of urgency/day, Median difference from placebo” value ([2]; 7.5 mg o.d., baseline 53.2) was −2.5 and the “Severity of urgency/day, Median difference from placebo” value [2, 7] was −3.8*. The “Severity of urgency/day, Median difference from placebo” value [2, 8] was −5.5*.
